Data from ChEMBL document CHEMBL1201862, “PubChem BioAssay data set” (2004).
The source made the active and inactive calls.

Legend:
Vero = assay: viability of Vero cells under compound – cytotoxicity control for flavivirus capping enzyme inhibitors (AID 588742); format: functional; details: Chlorocebus sabaeus
[1] = biological target: Induced myeloid leukemia cell differentiation protein Mcl-1 (Homo sapiens, UniProt Q07820); format: functional
[2] = biological target: T1, Apoptotic protease-activating factor 1 (Homo sapiens, UniProt O14727); format: functional
T1 sequence (O14727 whole entry): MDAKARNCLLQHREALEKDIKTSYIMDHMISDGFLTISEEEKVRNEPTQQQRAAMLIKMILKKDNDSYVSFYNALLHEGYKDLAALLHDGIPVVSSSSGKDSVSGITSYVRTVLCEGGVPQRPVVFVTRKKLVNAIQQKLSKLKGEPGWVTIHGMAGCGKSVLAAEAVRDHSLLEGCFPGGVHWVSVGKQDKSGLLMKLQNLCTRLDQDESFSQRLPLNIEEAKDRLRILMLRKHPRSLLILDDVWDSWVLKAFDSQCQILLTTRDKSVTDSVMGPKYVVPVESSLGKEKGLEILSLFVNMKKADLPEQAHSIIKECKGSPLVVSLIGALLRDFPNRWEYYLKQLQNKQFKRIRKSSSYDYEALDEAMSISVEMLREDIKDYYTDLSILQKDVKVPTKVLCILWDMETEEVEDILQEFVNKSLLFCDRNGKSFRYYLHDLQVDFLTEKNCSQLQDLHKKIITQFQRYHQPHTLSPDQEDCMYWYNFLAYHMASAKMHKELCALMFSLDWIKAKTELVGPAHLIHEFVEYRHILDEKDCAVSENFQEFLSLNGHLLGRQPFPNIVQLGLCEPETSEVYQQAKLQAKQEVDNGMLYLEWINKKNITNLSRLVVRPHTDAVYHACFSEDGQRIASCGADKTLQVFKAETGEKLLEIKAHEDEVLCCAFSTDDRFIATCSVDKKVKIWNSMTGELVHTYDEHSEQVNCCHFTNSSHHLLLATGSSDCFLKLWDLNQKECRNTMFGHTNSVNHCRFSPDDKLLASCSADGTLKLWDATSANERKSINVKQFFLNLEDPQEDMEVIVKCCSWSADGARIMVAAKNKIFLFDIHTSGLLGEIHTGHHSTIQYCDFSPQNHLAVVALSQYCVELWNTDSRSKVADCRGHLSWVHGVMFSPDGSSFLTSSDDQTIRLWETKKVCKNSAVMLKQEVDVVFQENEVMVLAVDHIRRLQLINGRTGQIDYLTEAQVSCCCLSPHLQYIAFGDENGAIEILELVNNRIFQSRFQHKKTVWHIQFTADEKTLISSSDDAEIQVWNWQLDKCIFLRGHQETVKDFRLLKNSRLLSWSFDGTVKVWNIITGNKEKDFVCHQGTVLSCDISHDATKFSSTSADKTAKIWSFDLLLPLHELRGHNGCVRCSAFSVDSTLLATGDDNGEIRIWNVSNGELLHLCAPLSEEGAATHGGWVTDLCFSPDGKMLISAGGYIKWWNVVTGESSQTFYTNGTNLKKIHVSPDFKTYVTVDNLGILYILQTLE

[3] = IC50 of Artemis nuclease activity blockers – biochemical, fluorescence intensity, dose response (AID 720701); format: functional;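 also: Artemis endonuclease enzyme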
HEK293 = assay: EBV LMP1 TES2 canonical NF-kB signalling blockers – cell-based, HEK293, luciferase, cherry-pick, dose response (AID 588343); format: functional; details: Homo sapiens
[4] = biological target: NAD-dependent protein deacylase sirtuin-5, mitochondrial (Homo sapiens, UniProt Q9NXA8); assay: sirtuin-5 deacylation blockers, concentration series – biochemical, fluorescence imaging, cherry-pick, set 5, dose response (AID 720591);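 also: desuccinylation of succinyl peptide AMC substrate read as fluorescence after trypsin release; potency of inhibitors that lower fluorescence and may act on trypsin instead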
Major prion protein = Major prion protein (Homo sapiens, UniProt P04156); format: functional, cell-based
[5] = biological target: T2, Mannose-6-phosphate isomerase (Homo sapiens, UniProt P34949); assay: MPI inhibition at elevated mannose 6-phosphate – biochemical, fluorescence intensity, high mannose 6-phosphate, primary screen (AID 1220)
T2 sequence (P34949 whole entry): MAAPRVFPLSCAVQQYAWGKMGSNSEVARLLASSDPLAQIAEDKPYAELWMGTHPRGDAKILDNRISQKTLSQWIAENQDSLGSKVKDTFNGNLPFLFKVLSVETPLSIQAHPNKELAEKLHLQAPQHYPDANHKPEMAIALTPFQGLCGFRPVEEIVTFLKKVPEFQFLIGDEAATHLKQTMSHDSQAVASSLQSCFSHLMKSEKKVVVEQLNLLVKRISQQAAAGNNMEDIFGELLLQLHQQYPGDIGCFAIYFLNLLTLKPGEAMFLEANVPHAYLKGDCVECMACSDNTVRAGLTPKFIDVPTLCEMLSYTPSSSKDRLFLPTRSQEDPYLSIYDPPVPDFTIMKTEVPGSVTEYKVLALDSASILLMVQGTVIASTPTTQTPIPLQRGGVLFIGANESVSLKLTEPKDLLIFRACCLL

[6] = viability of PTEN-deleted HCT116 cells – cell-based, HCT116 PTEN knockout, dose response (AID 1047); format: functional;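 also: HCT116 colon tumor cells with PTEN knocked out; cells exposed to compound for 60 hours before readout; potency for loss of cell viability measured by luminescence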
[7] = system: Streptococcus sp. 'group A'; assay: Streptococcus pyogenes SK(-)GAS viability under kanamycin – luminescence, BacTiterGlo, confirmation, counter-screen for streptokinase expression inhibitor project, dose response (AID 1900); format: functional, organism-based
Streptococcus = assay: GAS UMAA2166 growth inhibition – luminescence, BacTiterGlo, counter-screen for streptokinase expression inhibitor project, dose response (AID 1915); format: functional, organism-based;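 also: potency for reduction of bacterial viability or growth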
Protein skinhead-1 = biological target: T3, Protein skinhead-1 (Caenorhabditis elegans, UniProt P34707); format: functional
T3 sequence (P34707 whole entry): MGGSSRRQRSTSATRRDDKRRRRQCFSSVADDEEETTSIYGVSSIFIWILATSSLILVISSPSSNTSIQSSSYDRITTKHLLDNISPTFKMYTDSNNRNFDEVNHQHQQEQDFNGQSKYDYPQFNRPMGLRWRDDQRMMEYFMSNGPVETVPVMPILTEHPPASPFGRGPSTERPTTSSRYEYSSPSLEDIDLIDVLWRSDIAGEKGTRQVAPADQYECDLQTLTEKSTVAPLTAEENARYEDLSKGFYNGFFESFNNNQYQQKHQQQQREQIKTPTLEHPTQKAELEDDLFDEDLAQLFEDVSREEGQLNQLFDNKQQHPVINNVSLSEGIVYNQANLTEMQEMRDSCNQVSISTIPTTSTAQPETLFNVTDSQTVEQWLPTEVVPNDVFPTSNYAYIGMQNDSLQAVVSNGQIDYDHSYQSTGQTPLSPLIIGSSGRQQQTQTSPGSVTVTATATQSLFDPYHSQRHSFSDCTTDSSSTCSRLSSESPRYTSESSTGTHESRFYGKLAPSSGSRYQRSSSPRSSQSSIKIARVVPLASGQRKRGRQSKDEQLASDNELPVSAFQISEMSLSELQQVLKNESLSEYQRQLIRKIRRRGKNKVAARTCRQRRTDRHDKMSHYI

[8] = viability of HCT116 lacking mutant beta-catenin – cell-based, human colon tumor, dose response (AID 1045); format: functional;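 also: HCT116 colon tumor cells with beta catenin knocked out; cells exposed to compound for 60 hours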
[9] = biological target: Disintegrin and metalloproteinase domain-containing protein 17 (Homo sapiens, UniProt P78536); assay: inhibition of ADAM17 substrate cleavage – biochemical, quenched FRET substrate, counter-screen for ADAM10 exosite inhibitor project, dose response (AID 743253)
Streptokinase A = biological target: T4, Streptokinase A (Streptococcus pyogenes serotype M1, UniProt P10520); assay: viability-normalized secreted streptokinase activity reduction – plasminogen activation absorbance, OD405, dose response (AID 1914); format: functional, Streptococcus pyogenes M1 GAS;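 also: secreted streptokinase activity via plasminogen activation per viability signal from cell pellet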
T4 sequence (P10520 whole entry): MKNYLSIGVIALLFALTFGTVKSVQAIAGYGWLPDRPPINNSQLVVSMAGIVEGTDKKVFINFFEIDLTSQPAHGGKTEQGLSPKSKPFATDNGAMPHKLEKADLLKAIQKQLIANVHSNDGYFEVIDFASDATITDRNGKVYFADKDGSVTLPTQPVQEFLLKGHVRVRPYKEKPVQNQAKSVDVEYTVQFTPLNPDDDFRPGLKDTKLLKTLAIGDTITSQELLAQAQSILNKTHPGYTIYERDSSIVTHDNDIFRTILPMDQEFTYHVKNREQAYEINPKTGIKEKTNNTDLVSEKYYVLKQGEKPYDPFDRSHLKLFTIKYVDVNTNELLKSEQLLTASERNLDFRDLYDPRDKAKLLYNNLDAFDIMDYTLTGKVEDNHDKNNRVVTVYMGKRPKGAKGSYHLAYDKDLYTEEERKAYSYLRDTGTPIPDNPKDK

[10] = A2780 cell killing – plate reader, dry powder samples, cytotoxicity control, dose response (AID 743046); format: functional, cell-based
Paired box protein Pax-8 = Paired box protein Pax-8 (Homo sapiens, UniProt Q06710); assay: PAX8 transcriptional activity inhibition in RMG-I – RMG-I cells, luciferase, cherry-pick, dose response (AID 687027); format: functional, cell-based;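 also: luciferase reporter driven by Pax8 target thyroperoxidase promoter measured by SteadyGlo luminescence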
[11] = OVCAR8 cell viability loss – plate reader, dry powder samples, PAX8 project, dose response (AID 743197); format: functional, cell-based; details: OVCAR-8
[12] = toxicity toward HepG2 liver cells – cell-based, plate reader, cherry-pick, antagonist series, cytotoxicity control, dose response (AID 743416); format: functional
[13] = A549 cell cytotoxicity, dose response, cytotoxicity control, plate reader, cherry-pick, antagonist series (AID 743412); format: functional, cell-based
[14] = blockade of melanocortin 4 receptor signaling – cell-based, plate reader, cherry pick, counter-screen for LGR2 antagonist project, dose response (AID 743444); format: functional;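 also: transfected HEK 293 cells stimulated with alpha-MSH peptide; potency of inhibitors of the alpha-MSH evoked signal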
[15] = blockers of bursicon-stimulated LGR2 cAMP reporter – cell-based, HEK293, CRE-luciferase reporter, cherry pick, set 2, dose response (AID 743343); format: functional;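 also: transfected cells were stimulated with diluted bursicon conditioned medium after compound addition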
[16] = OVCAR-3 cell viability loss – plate reader, dry powder samples, PAX8 inhibitor project, dose response (AID 743044); format: functional, cell-based
[17] = viability loss in HEK293 cells – cell-based, plate reader, cherry-picked samples, cytotoxicity control, dose response (AID 743446); format: functional
[18] = general cell-killing toxicity readout – plate reader, dry powder samples, cytotoxicity control for PAX8 inhibitor project, dose response (AID 743021); format: functional, cell-based
[19] = toxicity to human hepatoma HepG2 cells – cell-based, cherry-picked samples, cytotoxicity control, dose response (AID 1159577); format: functional
[20] = P. falciparum Dd2 growth inhibitors, dose response, SYBR Green, cherry-picked samples (AID 1159567); format: functional, cell-based

## Cc1ccc(N=Nc2c(N)nn3c(O)cc(-c4ccccc4)nc23)cc1
Vero
  CC50: 25.1 µM (active)
[1]
  IC50: 12.9 µM (active)
[2]
  IC50: 13.8 µM (active)
[3]
  IC50: 16.9 µM (active)

## CC(Sc1nc(-c2ccc(F)cc2)cs1)C(=O)N1c2ccccc2CC1C (configuration not stated)
HEK293
  AC50: 117 µM (active)
[4]
  AC50: > 30 µM (inactive)

## COC(=O)CSc1ncnc2scc(-c3ccccc3)c12
Major prion protein
  IC50: 5.59 µM (active)
cells
  IC50: > 138 µM (inactive)

## CCOc1cccc(C(=O)NC(=S)Nc2ccc(N3CCCC3)cc2)c1
[3]
  IC50: > 20 µM (inactive)

## Oc1nc2cc3c(cc2cc1CN(Cc1cccnc1)C(S)=NCc1ccco1)OCCO3
[5]
  IC50: > 50 µM (not active)

## COc1ccc(S(=O)(=O)Nc2cc3c4c(oc3c3ccccc23)CC(C)(C)CC4=O)cc1
[6]
  EC50: 20.1 µM (active)
[7]
  EC50: 9.62 µM (active)
Streptococcus
  EC50: 78.6 µM (active)
Protein skinhead-1
  IC50: > 100 µM (inactive)
[8]
  EC50: 26.6 µM (active)
[9]
  IC50: > 69.5 µM (inactive)
Streptokinase A
  EC50: 97 µM (active)

## NS(=O)(=O)c1cnccc1Nc1ccc(Cl)cc1
[4]
  AC50: > 30 µM (inactive)

## O=C(C1=C(O)C(=O)N(CCN2CCOCC2)C1c1cccc(Br)c1)c1cc2ccccc2o1 (configuration not stated)
Major prion protein
  IC50: 3.22 µM (active)
cells
  IC50: > 138 µM (inactive)

## Cn1nc(C(F)(F)F)c(/C=N/OC(=O)c2ccccc2Cl)c1SCc1ccccc1Cl
Major prion protein
  IC50: 4.68 µM (active)
cells
  IC50: > 138 µM (inactive)

## C[C@@H]1CN([C@@H](C)CO)C(=O)c2cc(NC(=O)Nc3ccc(C(F)(F)F)cc3)ccc2O[C@@H](C)CCCCO[C@H]1CN(C)C(=O)c1ccccc1
[10]
  AC50: 54.3 µM (active)
Paired box protein Pax-8
  AC50: 5.18 µM (active)
[11]
  AC50: > 70 µM (inactive)

## C[C@H](CO)N1C[C@H](C)[C@@H](CN(C)Cc2ccc(Cl)c(Cl)c2)OCCCC[C@H](C)Oc2ccc(NS(=O)(=O)c3ccc(F)cc3)cc2C1=O
[10]
  AC50: 49.6 µM (active)
Paired box protein Pax-8
  AC50: 15.6 µM (active)
[11]
  AC50: > 70 µM (inactive)

## O=S(=O)(c1ccccc1F)N1CC[C@@H]2[C@H]1c1cc(-c3cccc(F)c3)ccc1N[C@@H]2CO
[12]
  AC50: 18.6 µM (active)
[13]
  AC50: 8.1 µM (active)
Paired box protein Pax-8
  AC50: 4.09 µM (active)
[14]
  AC50: 11.2 µM (active)
[15]
  AC50: 11.1 µM (active)
[11]
  AC50: 15.6 µM (active)
[16]
  AC50: 49 µM (active)
[17]
  AC50: 15.3 µM (active)
[18]
  AC50: 5.52 µM (active)

## C[C@@H]1C=CCCO[C@]12C(=O)N(Cc1ccccc1C(F)(F)F)c1ccccc12
[4]
  AC50: > 30 µM (inactive)

## COc1ccccc1NC(=O)N1CCCCN2[C@H](CO)[C@H](c3ccc(C#Cc4ccccc4)cc3)[C@H]2C1
[19]
  AC50: 8.11 µM (active)
[20]
  AC50: 1.03 µM (active)

## CCCNC(=O)N1CC2(CCN(Cc3cccc(OC)c3)CC2)c2c(n(C)c3cc(OC)ccc23)[C@@H]1CO
[19]
  AC50: 21.1 µM (active)
[20]
  AC50: 4.94 µM (active)
